# Entries after “also recorded” stand apart in the source; their conditions may differ.
# Experiment: Degradation of the ions in the concomitant presence of LP (NMR signal at 49 ppm)
# Format: physicochemical
# Conditions: for signal at 49 ppm / wanted ions in concomitant presence of LP: after 48 h
# Description: During the production of the wanted ions, if one keeps the enzyme in the mixture, one observes a gradual loss of the wanted ions, and, after 48 h, a total loss of the wanted ions due to enzymatic oxidation of the wanted ions, as illustrated in FIG. 19 in which one observes a decrease in the intensity of the signal as a function of the time of presence of the enzyme in the matrix (solution).
substance,measurement,setting,value
I2SCN^− and/or I(SCN)2^− ions,signal at 49 ppm in concomitant presence of LP,3 h of incubation,pronounced decrease of the signal
same,signal at 49 ppm in concomitant presence of LP,after 1 h,slight decrease
same,signal at 49 ppm / wanted ions in concomitant presence of LP,,total disappearance of the signal; also recorded: complete disappearance
same,signal at 49 ppm / wanted ions in concomitant presence of LP,listed as wanted ions,total loss
